The term IC50 denotes the concentration needed to halve the response being measured.

T1 sequence (P25774 115-331): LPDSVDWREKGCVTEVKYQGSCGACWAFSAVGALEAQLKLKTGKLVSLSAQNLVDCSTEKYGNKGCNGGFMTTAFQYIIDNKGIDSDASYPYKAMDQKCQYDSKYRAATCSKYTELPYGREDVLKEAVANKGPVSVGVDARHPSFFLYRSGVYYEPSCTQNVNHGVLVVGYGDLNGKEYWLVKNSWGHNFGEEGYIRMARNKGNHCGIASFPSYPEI

The first assay addresses T1, Recombinant human cathepsin S (CatS) (Homo sapiens, UniProt P25774).
T1 construct: made in house
Nature of the assay: Recombinant human cathepsin S (CatS) fluorogenic substrate inhibition assay. Type of assay: biochemical.
Settings: not given
Here is the method:
Recombinant human cathepsin S (CatS) was expressed in the baculovirus system and purified in one step with a thiopropyl-sepharose column. […] The assay is run in 150 mM sodium acetate pH 5.0 containing 1.5 mM DTT and 150 mM NaCl. […] Measurements are taken every min for 20 min. The rate is calculated from the slope of the increase in fluorescence and the percent inhibition is calculated from this.
With `CS(=O)(=O)N1CCc2c(c(-c3ccc(C(F)(F)F)c(CNC(=O)Oc4ccccc4)c3)nn2CC(O)CN2CCC3(CCNC3=O)CC2)C1` (centres unmarked) [Example 149, (5-{1-[2-Hydroxy-3-(1-oxo-2,8-diaza-spiro[4.5]dec-8-yl)-propyl]-5-methanesulfonyl-4,5,6,7-tetrahydro-1H-pyrazolo[4,3-c]pyridin-3-yl}-2-trifluoromethyl-benzyl)-carbamic acid phenyl ester], the IC50 stood at 0.22 µM.

The same assay, now with this note: average of results obtained; substrate Z-Valine-Valine-Arginine-AMC 10 μM, pH 5.0; read-out: CatS IC50.
As for `CS(=O)(=O)N1CCc2c(c(-c3ccc(Cl)c(CNC(=O)c4ccc(F)cc4)c3)nn2CC(O)CN2CCCC(O)C2)C1` (centres unmarked) [Example 74, N-(2-Chloro-5-{1-[2-hydroxy-3-(3-hydroxy-piperidin-1-yl)-propyl]-5-methanesulfonyl-4,5,6,7-tetrahydro-1H-pyrazolo[4,3-c]pyridin-3-yl}-benzyl)-4-fluoro-benzamide], the IC50 was 0.3 µM.

With `CC(=O)NC1CCN(CC(Cn2nc(-c3ccc(Cl)c(CNC(=O)c4ccc(F)cc4)c3)c3c2CCN(S(C)(=O)=O)C3)OC(C)=O)CC1` (centres unmarked) [Example 80, Acetic acid 1-(4-acetylamino-piperidin-1-ylmethyl)-2-(3-{4-chloro-3-[(4-fluoro-benzoylamino)-methyl]-phenyl}-5-methanesulfonyl-4,5,6,7-tetrahydro-pyrazolo[4,3-c]pyridin-1-yl)-ethyl ester], the IC50 came to 0.1 µM.

As for `Cc1ccc(C(=O)NCc2cc(-c3nn(CCCN4CCCC4)c4c3CN(S(C)(=O)=O)CC4)ccc2Cl)cc1` [Example 88, N-{2-Chloro-5-[5-methanesulfonyl-1-(3-pyrrolidin-1-yl-propyl)-4,5,6,7-tetrahydro-1H-pyrazolo[4,3-c]pyridin-3-yl]-benzyl}-4-methyl-benzamide], the IC50 came out at 0.74 µM.

With `CC(C)CC(=O)NCc1cc(-c2nn(CC(O)CN3CCC(O)CC3)c3c2CN(S(C)(=O)=O)CC3)ccc1C(F)(F)F` (centres unmarked) [Example 245, N-(5-{1-[2-Hydroxy-3-(4-hydroxy-piperidin-1-yl)-propyl]-5-methanesulfonyl-4,5,6,7-tetrahydro-1H-pyrazolo[4,3-c]pyridin-3-yl}-2-trifluoromethyl-benzyl)-3-methyl-butyramide], the half-maximal inhibitory concentration (IC50) was found to be 0.27 µM.

For the compound `CS(=O)(=O)N1CCc2c(c(-c3ccc(Cl)c(CCC(=O)Nc4ccccc4)c3)nn2CCCN2CCOCC2)C1` [Example 292, 3-{2-Chloro-5-[5-methanesulfonyl-1-(3-morpholin-4-yl-propyl)-4,5,6,7-tetrahydro-1H-pyrazolo[4,3-c]pyridin-3-yl]-phenyl}-N-phenyl-propionamide], the IC50 amounted to 2.55 µM.

With `CC(C)=CC(=O)NCc1cc(-c2nn(CC(O)CN3CCC(N(C)C)CC3)c3c2CN(S(C)(=O)=O)CC3)ccc1C(F)(F)F` (centres unmarked) [Example 34, 3-Methyl-but-2-enoic acid 5-{1-[3-(4-dimethylamino-piperidin-1-yl)-2-hydroxy-propyl]-5-methanesulfonyl-4,5,6,7-tetrahydro-1H-pyrazolo[4,3-c]pyridin-3-yl}-2-trifluoromethyl-benzylamide], the IC50 was 0.26 µM.

Consider `CC(=O)Nc1ccc(C(=O)NCc2cc(-c3nn(CC(O)CN4CCCC4)c4c3CN(S(C)(=O)=O)CC4)ccc2C(F)(F)F)cc1` (centres unmarked) [Example 240, 4-Acetylamino-N-{5-[1-(2-hydroxy-3-pyrrolidin-1-yl-propyl)-5-methanesulfonyl-4,5,6,7-tetrahydro-1H-pyrazolo[4,3-c]pyridin-3-yl]-2-trifluoromethyl-benzyl}-benzamide], for which the IC50 was determined as 0.97 µM.

In the case of `CNC(=O)CCc1cc(-c2nn(CCCN3CCOCC3)c3c2CN(S(C)(=O)=O)CC3)ccc1Cl` [Example 294, 3-{2-Chloro-5-[5-methanesulfonyl-1-(3-morpholin-4-yl-propyl)-4,5,6,7-tetrahydro-1H-pyrazolo[4,3-c]pyridin-3-yl]-phenyl}-N-methyl-propionamide], the IC50 turned out to be 16.5 µM.

`O=C(NCc1cc(-c2nn(CC(O)CN3CCC4(CCNC4=O)CC3)c3c2CN(C(=O)CO)CC3)ccc1C(F)(F)F)c1ccc(F)cc1` (centres unmarked) [Example 8, 4-Fluoro-N-(5-{5-(2-hydroxy-acetyl)-1-[2-hydroxy-3-(1-oxo-2,8-diazaspiro[4.5]dec-8-yl)-propyl]-4,5,6,7-tetrahydro-1H-pyrazolo[4,3-c]pyridin-3-yl}-2-trifluoromethyl-benzyl)-benzamide]: the half-inhibitory concentration (IC50) was 0.02 µM.

For the compound `CS(=O)(=O)N1CCc2c(c(-c3ccc(Cl)c(COCc4ccccc4)c3)nn2CCCN2CCCC2)C1` [Example 71, 3-(3-Benzyloxymethyl-4-chloro-phenyl)-5-methanesulfonyl-1-(3-pyrrolidin-1-yl-propyl)-4,5,6,7-tetrahydro-1H-pyrazolo[4,3-c]pyridine], the 50% inhibitory concentration (IC50) worked out at 1.95 µM.

`CS(=O)(=O)N1CCc2c(c(-c3ccc(Cl)c(CCC(=O)Nc4ccc(F)cc4)c3)nn2CCCN2CCOCC2)C1` [Example 293, 3-{2-Chloro-5-[5-methanesulfonyl-1-(3-morpholin-4-yl-propyl)-4,5,6,7-tetrahydro-1H-pyrazolo[4,3-c]pyridin-3-yl]-phenyl}-N-(4-fluoro-phenyl)-propionamide]: the IC50 came to 3 µM.

On to `CS(=O)(=O)N1CCc2c(c(-c3ccc(C(F)(F)F)c(CNC(=O)c4ccccc4)c3)nn2CC(O)CN2CCCC2)C1` (centres unmarked) [Example 56, N-{5-[1-(2-Hydroxy-3-pyrrolidin-1-yl-propyl)-5-methanesulfonyl-4,5,6,7-tetrahydro-1H-pyrazolo[4,3-c]pyridin-3-yl]-2-trifluoromethyl-benzyl}-benzamide], for which the IC50 came to 0.25 µM.

Consider `CS(=O)(=O)N1CCc2c(c(-c3ccc(C(F)(F)F)c(CNC(=O)c4cccc(O)c4)c3)nn2CC(O)CN2CCCC2)C1` (centres unmarked) [Example 58, 3-Hydroxy-N-{5-[1-(2-hydroxy-3-pyrrolidin-1-yl-propyl)-5-methanesulfonyl-4,5,6,7-tetrahydro-1H-pyrazolo[4,3-c]pyridin-3-yl]-2-trifluoromethyl-benzyl}-benzamide], for which the IC50 was 0.42 µM.

`CC(C)=CC(=O)NCc1cc(-c2nn(CC(O)CN3CCOCC3)c3c2CN(S(C)(=O)=O)CC3)ccc1C(F)(F)F` (centres unmarked) [Example 153, 3-Methyl-but-2-enoic acid 5-[1-(2-hydroxy-3-morpholin-4-yl-propyl)-5-methanesulfonyl-4,5,6,7-tetrahydro-1H-pyrazolo[4,3-c]pyridin-3-yl]-2-trifluoromethyl-benzylamide]: the IC50 was 0.14 µM.

In the case of `CS(=O)(=O)N1CCc2c(c(-c3ccc(C(F)(F)F)c(CNS(=O)(=O)Cc4ccccc4)c3)nn2CCCN2CCC3(CCNC3=O)CC2)C1` [Example 67, N-(5-{5-Methanesulfonyl-1-[3-(1-oxo-2,8-diaza-spiro[4.5]dec-8-yl)-propyl]-4,5,6,7-tetrahydro-1H-pyrazolo[4,3-c]pyridin-3-yl}-2-trifluoromethyl-benzyl)-C-phenyl-methanesulfonamide], the IC50 came to 2.2 µM.

As for `CN(C)C1CCN(CC(O)Cn2nc(-c3ccc(C(F)(F)F)c(CNC(=O)c4ccc(F)cc4)c3)c3c2CCN(S(C)(=O)=O)C3)C1` (centres unmarked) [Example 26, N-(5-{1-[3-(3-Dimethylamino-pyrrolidin-1-yl)-2-hydroxy-propyl]-5-methanesulfonyl-4,5,6,7-tetrahydro-1H-pyrazolo[4,3-c]pyridin-3-yl}-2-trifluoromethyl-benzyl)-4-fluoro-benzamide], the IC50 was found to be 0.36 µM.
